Experiments:
Assay type in all cases: cell-based
[1] = system: reactive oxygen species (ROS) in rat PMCs; test: Reactive oxygen species by flow cytometry (DCF); conditions: D-glucose 50 mM and 83 mM, 8 hours, aliskiren 10-100 μM, FIG. 6
Protocol: The cells were incubated in D-glucose at 50 mM (A) and 83 mM (B) for 8 hours in the presence or absence of aliskiren (10-100 μM) and dichlorofluorescein (DCF) intensity was measured using flow cytometry, as described in Material and Methods. The data is expressed as mean±SEM, n=3. * p<0.05 compared to untreated cells (control). # p<0.05, compared to cells treated with D-glucose in the presence of carrier (0).
(§1) Rat peritoneal mesothelial cells were isolated by enzymatic digestion in accordance with protocols described in Hjelle J T, Golinska B T, Waters D C, et al. Perit Dial Int 1989; 9: 341-7. Briefly, female rats weighing 200-400 g of the Spragle-Dawley strain were sacrificed pursuant to Royal Decree 1201/2005, of 10 Oct., on protection of animals used for experimental and other scientific purposes. The abdominal cavity was quickly opened and the abdominal wall (peritoneum and smooth muscle) extracted under sterile conditions. […]
After washing with PBS, the cells were incubated with 5.6-chloromethyl-2,7-dichlorodihydrofluorescein diacetate (CM-H2DCFDA, Invitrogen) for 15 minutes at 37° C., following the standard protocol (Lee H B, 2004). […] The production of reactive oxygen species was calculated on the basis of evaluation of 10,000 cells per experimental condition.

Collagen I = test: Real-time RT-PCR in cultured PMCs exposed to PDF; conditions: rat PMCs, 1.5% PDF diluted 1:1 in culture medium, 24 hours, aliskiren 10-100 μM, FIG. 9
Protocol: (§2) After incubating the rat PMCs in 1.5% PDF diluted 1:1 in culture medium for 24 hours, in the presence or absence of carrier or different concentrations of aliskiren (10-100 μM), total RNA was isolated and real-time RT-PCR was carried out as described in Material and Methods. The data is expressed as mean±SEM, n=3. * p<0.05 compared to untreated cells (control). # p<0.05, compared to cells treated with 1.5% PDF in the presence of carrier (0).
(§3) Rat peritoneal mesothelial cells were isolated by enzymatic digestion in accordance with protocols described in Hjelle J T, Golinska B T, Waters D C, et al. Perit Dial Int 1989; 9: 341-7. […]
(§4) The RNA expression was evaluated by real-time RT-PCR in PMCs. […] RNA quality and concentration was evaluated by spectrophotometry (Infinite 200, Tecan, Salzburg, Austria) using 1 μl of the RNA sample. […] The dissociation curves were analysed to confirm the amplification of a single PCR product. […] In each experiment, the mean cycle threshold (CT) was calculated from triplicates for each of the genes studied, enabling comparison of the gene expression after different treatments (Methods 25, 402-408 (2001). In order to normalize the data, the gene expression of β-actin was used as endogenous control.

fibronectin = test: Real-time RT-PCR in cultured PMCs exposed to PDF; conditions: rat PMCs, 1.5% PDF diluted 1:1 in culture medium, 24 hours, aliskiren 10-100 μM, FIG. 11
Protocol: as §2, §3, §4

Collagen III = test: Real-time RT-PCR in cultured PMCs exposed to PDF; conditions: rat PMCs, 1.5% PDF diluted 1:1 in culture medium, 24 hours, aliskiren 10-100 μM, FIG. 10
Protocol: as §2, with “absence” for “absence of carrier or different concentrations”
as §1, with “purposes.” for “purposes. The abdominal cavity was quickly opened and the abdominal wall (peritoneum and smooth muscle) extracted under sterile conditions.”
as §4

With `COCCCOc1cc(C[C@@H](C[C@H](N)[C@@H](O)C[C@H](C(=O)NCC(C)(C)C(N)=O)C(C)C)C(C)C)ccc1OC` [aliskiren] the “production of reactive oxygen species” value [1] was “prevented”, the “RNAm levels for collagen I” value (Collagen I) was “lowered” and the “RNAm levels for fibronectin” value (fibronectin) was “lowered”. For the same compound, the “RNAm levels for collagen III” value (Collagen III) was “lowered”.

Source: US20130065964A1, “PERITONEAL DIALYSIS SOLUTION” (UNIVERSIDAD DE CASTILLA LA MANCHA, priority 2010, published 2013)
